Consider two molecules from the supplement of paper PMC11061612.

Assay [1] has as its system D-283MED (Other Solid Carcinomas). Put plainly: Bliss excess, mean over the matrix (fraction); higher = more synergy. The procedure, abridged:
(§1)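 After 24 hours at 37°C and 5% CO2 in 1536-well plates, cells in DMEM/F12 or RPMI plus 10% FBS received two-drug dose matrices for 72 hours. Viability came from CellTiter-Glo 2.0 luminescence and was scaled as inhibition, anchored at 0 by vehicle wells and at 1 by blank wells. Combination Emax is taken as the second-highest inhibition in the matrix, and Bliss excess as the observed combination effect less EA + EB − EA·EB, with EA and EB the single-agent effects.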

Assay [2] deals with SW48 (Colorectal Carcinoma). Put plainly: combination Emax (second highest fraction inhibited in the dose matrix, 72 h); higher = more inhibition; extreme values may be limits of the assay. In short, it runs like this:
as §1

Another assay relates to D-392MG (Glioblastoma). The description is as above. The procedure, abridged:
as §1

Assay [3] concerns HCT-116 (Colorectal Carcinoma). The description is as above. In short, it runs like this:
as §1

In assay [4] the test system is P31-FUJ (Acute Myeloid Leukemia). Described as above. The procedure, abridged:
as §1

The test system of a further assay is CS1 (Chondrosarcoma). The assay is described as above. The procedure, abridged:
as §1

Assay [5] relates to SK-UT-1 (Other Solid Carcinomas). The description is as above. The procedure, abridged:
as §1

In assay [6] the test system is TC-YIK (Other Solid Carcinomas). Described as above. The procedure, abridged: as §1
In assay [7] the test system is NOMO-1 (Acute Myeloid Leukemia). The assay is described as above. In short, it runs like this:
as §1

Assay [8] relates to SNG-M (Endometrial Carcinoma). The description is as above. In short, it runs like this: as §1
The test system of assay [9] is SK-LMS-1 (Other Solid Carcinomas). The description is as above. In short, it runs like this: as §1
The next assay relates to HCC38 (Breast Carcinoma). Described as above. In short, it runs like this:
as §1

In assay [10] the test system is DOK (Oral Cavity Carcinoma). The description is as above. In short, it runs like this: as §1
Assay [11] concerns WSU-DLCL2 (B-Cell Non-Hodgkin's Lymphoma). Described as above. The procedure, abridged:
as §1
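For Bliss excess, mean over the matrix in this document: after 72 h of two-drug dosing.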

For the molecule `N#Cc1cnc(Nc2cc(NC[C@H]3CNCCO3)c(C(F)(F)F)cn2)cn1` [SRA737] + Nc1ccn([C@@H]2O[C@H](CO)[C@@H](O)C2(F)F)c(=O)n1 [Gemcitabine] (first compound max 10 µM, 7x7, partner max 0.3 µM), in assay [1], the Bliss excess was determined as 0.0135. Moreover, the “combination Emax” value came to 0.841 in assay [2]; 0.611 in the assay on D-392MG (Glioblastoma); 0.873 in assay [3]; 1 in assay [4]; 0.737 in the assay with CS1 (Chondrosarcoma); 0.957 in [5]. The “combination Emax” value in assay [6] turned out to be 0.872; in assay [7], 1; in assay [8], 0.869; in [9], 0.855; in the assay with HCC38 (Breast Carcinoma), 0.731; in [10], 0.704. Also, in assay [11], the “combination Emax” value worked out at 1.

On to `CC1(C)CCC(CN2CCN(c3ccc(C(=O)NS(=O)(=O)c4ccc(NCC5CCOCC5)c([N+](=O)[O-])c4)c(Oc4cnc5[nH]ccc5c4)c3)CC2)=C(c2ccc(Cl)cc2)C1` [Venetoclax] + CS(=O)(=O)CCNCc1ccc(-c2ccc3ncnc(Nc4ccc(OCc5cccc(F)c5)c(Cl)c4)c3c2)o1 [Lapatinib] (first compound max 1 µM, 7x7, partner max 10 µM), for which, in assay [1], the Bliss excess is -0.0416. The “combination Emax” value came out at 0.391 in assay [2]; 0.0713 in the assay with D-392MG (Glioblastoma); 0.391 in assay [3]; 0.581 in [4]; 0.411 in the assay with CS1 (Chondrosarcoma); 0.458 in [5]. Besides, the “combination Emax” value was 0.294 in [6]; 0.319 in assay [7]; 0.247 in [8]; 0.212 in assay [9]; 0.169 in the assay on HCC38 (Breast Carcinoma); 0.645 in [10]. Further, the “combination Emax” value in [11] amounted to 0.798.
